Measured values as given in US6417180B1, “Zinc finger-reactive antimicrobial compounds” (priority 1998, dated 2002).

Legend:
[1] = system: methicillin-sensitive S. aureus (ATCC No. 29213); test: Thigh infection in neutropenic ICR/Swiss mice (Example 10); assay type: in vivo; details: 40 mg/kg i.v. at 2, 6, 12, 18 hours post-infection; 24 hours after infection; 100× diluted homogenate; saline controls about 500
Description: Before infection with test bacteria, six six-week old pathogen-free ICR/Swiss mice are rendered neutropenic (less than 100 neutrophils per milliliter of blood) by intraperitoneal injection of two doses of cyclophosphamide. The first injection is made at 150 mg/kg four days before bacterial infection, and the second injection is made at 100 mg/kg one day before bacterial infection. Neutropenia is induced so that a wide variety of bacteria can be used for the subsequent infection.
Bacterial infection for each mouse is performed by inoculating 10^6 cfu of methicillin-sensitive S. aureus (ATCC No. 29213) in 100 μl of media into the right thigh muscle. The compound and control mixtures are administered intravenously into the tail vein of the animal at 2, 6, 12, and 18 hours post-infection. Two mice received 50 μl of a negative control mixture of physiological saline at each time point. Another pair of mice received a positive control mixture of 40 mg/kg body weight vancomycin in saline at each time point. The last two mice received 40 mg/kg body weight of the candidate compound in saline at each time point.
At 24 hours after infection, all mice are sacrificed, and the right thigh muscle of each mice removed. […] After incubating at 37° C. for 24 hours, the number of colonies on each plate is counted. […]

[2] = system: S. aureus; details: 40 mg/kg intravenously every four hours; cited from earlier work
[3] = biological target: T1, B. subtilis pol III (Bacillus subtilis, UniProt P13267); test: Radioactive zinc content of 65Zn-labeled pol III after treatment with zinc-removing compound; assay type: biochemical; details: 0.2 mM MMTS, one hour
T1 construct: the so-called wild-type pol III, was identical to the native enzyme found in B. subtilis; made in house; host or cells: E. coli AR120, plasmid pKC30/polC
Description: (§1) 0.2 nanomoles of pol III was mixed in 0.1 ml of HNE buffer (10 mM HEPES, 100 mM NaCl, and 10% glycerol [pH 7.6]) containing 0.3 mM Compound 20, and the mixture was incubated at 25° C. for one hour. The pol III was removed from Compound 20 by passage through a Sephadex G-25 spin column, and the enzyme assayed for polymerase activity and for its content of radioactive zinc (see procedures described above).
Ejection of Zinc by Treatment of Coordinating Thiolates with MMTS. The compound MMTS is described in Example 2 above. 0.2 nanomoles of ^65Zn-labeled B. subtilis pol III was incubated with HNE buffer with or without 0.2 mM MMTS for one hour, and the samples assayed as described for the pol III treatment with Compound 20.

[4] = biological target: T1, B. subtilis pol III; test: 65Zn release from labeled pol III by MMTS (Sephadex G-25 separation); assay type: biochemical; details: 60 minutes, 0° C.
Description: Pol III was labeled by growing bacteria transformed with the above-described pol III expression plasmids in the presence of ^65Zn. LB expression medium was first depleted of divalent trace metals by mixing the medium with 0.3 volume of Chelex-Na (Bio-Rad) for 24 hours at 0° C. The depleted medium was then supplemented with 0.1 mM MgCl2 to support a level of E. coli growth compatible with pol III expression. E. coli AR120 transformed with the pKC30/polC vector was grown at 30° C. in this magnesium-supplemented medium. When the culture reached an absorbance of 0.5 ([…], 1 cm path length), 10 ml of the culture was added to one liter of the zinc-depleted, magnesium-supplemented medium, which further included [^65Zn]Cl2 (New England Nuclear; specific activity of 2.7 mCi/μmole) to a radioactivity level of 1.1 μCi/ml medium. Incubation was continued until the culture reached an absorbance of 0.75. […]
To remove non-specifically bound ^65Zn and exogenous thiols, the pol III was dialyzed as described in Example 1 above, and the labeled protein was further dialyzed with HNE buffer (10 mM HEPES [pH 7.6], 100 mM NaCl, and 0.1 mM EDTA) to remove exogenous thiols. […] The fraction eluted with each step was analyzed by liquid scintillation counting to determine the amount of protein-bound ^65Zn (void volume) and the amount of free ^65Zn (included volume).

[5] = biological target: T1, B. subtilis pol III; test: Polymerase activity of pol III after treatment with zinc-removing compound; assay type: biochemical; details: 0.2 mM MMTS, one hour
Description: (§2) Polymerase activity was determined as described in Barnes et al., Meth. Enzymol., 262:35-42, 1995, using activated calf thymus DNA (Worthington) as template and primer and [^3H]dTTP as the substrate. One unit of polymerase activity was defined as the activity which catalyzes the incorporation of one nanomole of [^3H]dTMP in 10 minutes at 30° C. For determination of the KM of the polymerase for DNA, the concentration of activated calf thymus DNA was varied during assay from 0-0.8 mg/ml. For determination of the KM for dGTP, incorporation of [^3H] dTMP was followed as a function of dGTP concentration (0-0.5 mM), and the values for incorporation were corrected for dGTP-independent, background incorporation.
as §1
Ejection of Zinc by Treatment of Coordinating Thiolates with MMTS. The compound MMTS is described in Example 2 above. […]

[6] = biological target: T1, B. subtilis pol III; test: Reconstitution of zinc-deficient inactive polymerase with ZnCl2/DTT; assay type: biochemical; details: pol III inactivated by MMTS; 0.01 mM ZnCl2 and 0.01 mM DTT, 25° C., 12 hours
Description: At 30 minute intervals, samples were removed and assayed for pol activity.

[7] = biological target: T2, H909A B. subtilis pol III (Bacillus subtilis, UniProt P13267, H909A); test: TMAU sensitivity of polymerase activity, H909A mutant; assay type: biochemical; details: H909A enzyme
T2 construct: The H909A enzyme, although expressed as a full-length protein, was not readily produced in an amount sufficient for metal analysis; made in house; host or cells: E. coli SG101, plasmid pSGA04
Description: as §2
(§3) An oligonucleotide-based system (Altered Sites, Promega) was used to introduce the mutations into the segment of polC encoding the putative zinc finger. […]
(§4) Each of the five purified mutant enzymes of Table I was analyzed directly, in its native, undialyzed form, to assess the impact of the respective mutation on (1) exonuclease and polymerase activity; (2) affinity for exonuclease and polymerase substrates; and (3) sensitivity of the polymerase activity to TMAU, a dGTP analog which inhibits the pol III of Gram-positive eubacteria (Wright et al., Pharmac. Therap., 47:447-497, 1990).

[8] = biological target: T3, C940A B. subtilis pol III (Bacillus subtilis, UniProt P13267, C940A); test: TMAU sensitivity of polymerase activity, C940A mutant; assay type: biochemical; details: C940A enzyme
T3 construct: Each of the three full-length mutants (C912A, C915A, and C940A); made in house; host or cells: E. coli SG101, plasmid pSGA04
Description: as §2, §3, §4

[9] = biological target: T4, C915A B. subtilis pol III (Bacillus subtilis, UniProt P13267, C915A); test: TMAU sensitivity of polymerase activity, C915A mutant; assay type: biochemical; details: C915A enzyme
T4 construct: Each of the three full-length mutants (C912A, C915A, and C940A); made in house; host or cells: E. coli SG101, plasmid pSGA04
Description: as §2, §3, §4

[10] = biological target: T5, Wildtype B. subtilis pol III (Bacillus subtilis, UniProt P13267); test: TMAU sensitivity of polymerase activity, wild-type enzyme; assay type: biochemical
T5 construct: made in house; host or cells: E. coli SG101, plasmid pSGA04
Description: as §2
Tagged wild-type and mutant forms of pol III were obtained at greater than 95% homogeneity using the procedure of Example 1 above. The proteins were then subjected to EDTA-based dialysis, and analyzed for zinc content as described in Example 1.
as §4

SMILES: CN[C@H](CC(C)C)C(=O)N[C@H]1C(=O)N[C@@H](CC(N)=O)C(=O)N[C@H]2C(=O)N[C@H]3C(=O)N[C@H](C(=O)N[C@H](C(=O)O)c4cc(O)cc(O)c4-c4cc3ccc4O)[C@H](O)c3ccc(c(Cl)c3)Oc3cc2cc(c3O[C@@H]2O[C@H](CO)[C@@H](O)[C@H](O)[C@H]2O[C@H]2C[C@](C)(N)[C@H](O)[C@H](C)O2)Oc2ccc(cc2Cl)[C@H]1O [vancomycin]
- colonies from thigh muscle homogenate [1]: about 40 colonies on each plate
- reduction in S. aureus proliferation compared with control thighs [2]: two to four

SMILES: CSS(C)(=O)=O [MMTS, methylmethanethio-sulfonate]
- radioactive zinc content relative to control [3]: less than 2 % of the control
- 65Zn label released from pol III ([4]; 0.01 mM MMTS): about 50%
- 65Zn label released from pol III ([4]; three higher concentrations (0.03, 0.10, 0.3 mM MMTS)): greater than 95%
- pol III activity relative to control [5]: less than 1 % of the control
- reactivation of pol activity after treatment [6]: No reactivation

SMILES: O=c1cc(Nc2ccc3c(c2)CCC3)[nH]c(=O)[nH]1 [TMAU]
- IC50 [7]: 4 µM
- IC50 [8]: 4 µM
- IC50 [9]: 2900 nM
- IC50 [10]: 4.1 µM
